These results are taken from EP1007514B1, “HETEROCYCLIC KETONES AS NPY Y5 ANTAGONISTS” (BAYER CORPORATION, priority 1997, dated 1999).

The structures appear in SMILES notation.

In experiment [1] the target is T1, human NPY Y1 receptor subtype (Homo sapiens, UniProt P25929).
T1 construct: host or cells: SK-N-MC cells
T1 sequence (P25929 1-384): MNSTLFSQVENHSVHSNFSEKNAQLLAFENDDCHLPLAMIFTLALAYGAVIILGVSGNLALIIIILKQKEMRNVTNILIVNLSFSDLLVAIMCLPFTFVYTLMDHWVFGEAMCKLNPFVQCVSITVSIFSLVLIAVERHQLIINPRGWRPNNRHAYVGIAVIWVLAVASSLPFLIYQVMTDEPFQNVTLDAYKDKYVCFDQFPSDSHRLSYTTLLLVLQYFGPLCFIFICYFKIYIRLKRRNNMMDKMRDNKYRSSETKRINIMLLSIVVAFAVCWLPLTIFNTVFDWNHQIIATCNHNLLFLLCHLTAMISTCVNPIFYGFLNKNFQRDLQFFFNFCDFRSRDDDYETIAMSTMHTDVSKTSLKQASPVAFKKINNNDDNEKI
The experiment is described as follows: NPY Y1 receptor binding, [125I]PYY on SK-N-MC cells. Particulars: test compounds at 5 µM final concentration, [125I]PYY about 50 pM, read-out: IC50 (µM) NPY receptor indicated hY1. On the procedure:
For instance, test compounds antagonistic to human NPY Y1 receptor subtype can be identified by a modified method of Gordon et al., J. Neurochem. 55:506-513,(1990), wherein SK-N-MC cells (ATCC, Rockville, ND) are plated in 24-well plates. Once confluent, the cells are rinsed with Dulbecco's phosphate buffered saline (DPBS). Cells are then preincubated in binding buffer containing serum-free DMEM, 25 mM HEPES (pH 7.3), 0.5% bovine serum albumin (BSA), 0.1% bacitracin and 0.1mM phenylmethylsulfonyl fluoride for 30 minutes at room temperature. Test compounds at a final concentration of 5 µM, and [^125I] PYY (about 50 pM:NEN-DuPont) are added to the wells, and the cells are incubated for an additional 3 hours at room temperature, followed by rinsing with ice-cold DPBS. Nonspecific binding is defined with 1 µM NPY. After lysing the cells with 1% Triton X-100, the amount of radioactivity in the lysates is quantitated with a gamma counter.

The next experiment deals with T2, human NPY Y2 (Homo sapiens, UniProt P49146).
T2 sequence (P49146 1-381): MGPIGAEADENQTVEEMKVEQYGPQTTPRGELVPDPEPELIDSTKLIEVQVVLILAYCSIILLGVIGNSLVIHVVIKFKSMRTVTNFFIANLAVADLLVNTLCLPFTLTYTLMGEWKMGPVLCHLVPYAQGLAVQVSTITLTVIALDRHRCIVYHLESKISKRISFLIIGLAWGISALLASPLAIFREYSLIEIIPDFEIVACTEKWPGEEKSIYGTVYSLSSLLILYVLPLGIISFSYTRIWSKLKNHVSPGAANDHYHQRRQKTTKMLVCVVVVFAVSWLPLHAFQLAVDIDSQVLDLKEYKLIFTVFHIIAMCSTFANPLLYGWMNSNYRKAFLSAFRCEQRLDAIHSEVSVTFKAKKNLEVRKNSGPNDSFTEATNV
The experiment is described as follows: NPY Y2 receptor membrane binding, [125I]PYY. Particulars: membrane protein; 25 pM [125I]PYY; test compounds at 5 µM final concentration; read-out: IC50 (µM) NPY receptor indicated hY2. On the procedure:
Assays to determine binding affinity for human NPY Y2 and Y4/PP1 receptor subtypes are performed on GF/C Millipore 96-well plates pretreated with 0.02% polyethylenimine. […] Samples consist of membrane protein, 25 pM [^125I]PYY and test compounds at 5 µM final concentration. Nonspecific binding is defined by 1 µM NPY. The binding buffer for human Y4/PP1 binding consists of 137 mM NaCl, 5.4 mM KCl, 0.44 mM KH2PO4, 1.26 mM CaCl2, 0.81 mM MgSO4, 20 mM HEPES, 1 mM dithiothreitol, 0.1% bacitracin, 100 mg/l streptomycin sulfate, 1 mg/l aprotinin, 10 mg/ml soybean trypsin inhibitor and 0.3% BSA, pH 7.4. Samples consist of membrane protein, 50 pM human [^125I] human PP (hPP:NEN DuPont, Boston MA) and test compounds diluted to a final concentration of 5 µM. One µM hPP is used to define nonspecific binding. After a 2 hour incubation at room temperature with constant mixing, the samples are aspirated on a vacuum manifold, and rinsed with ice-cold binding buffer. The amount of radioactivity in each well is quantitated with either gamma counting or liquid scintillation.

For the next experiment, the target named is human Y4/PP1 (Homo sapiens, UniProt P50391). The experiment can be described thus: NPY Y4/PP1 receptor membrane binding, [125I] human PP. Particulars: membrane protein; 50 pM [125I] human PP; test compounds at 5 µM final concentration; read-out: IC50 (µM) NPY receptor indicated hY4/pp1. As for the experimental part:
Assays to determine binding affinity for human NPY Y2 and Y4/PP1 receptor subtypes are performed on GF/C Millipore 96-well plates pretreated with 0.02% polyethylenimine. The binding buffer for rat NPY Y2 receptor subtype binding is Krebs-Ringer bicarbonate (pH 7.4) containing 0.01% BSA and 0.005% bacitracin. Samples consist of membrane protein, 25 pM [^125I]PYY and test compounds at 5 µM final concentration. Nonspecific binding is defined by 1 µM NPY. The binding buffer for human Y4/PP1 binding consists of 137 mM NaCl, 5.4 mM KCl, 0.44 mM KH2PO4, 1.26 mM CaCl2, 0.81 mM MgSO4, 20 mM HEPES, 1 mM dithiothreitol, 0.1% bacitracin, 100 mg/l streptomycin sulfate, 1 mg/l aprotinin, 10 mg/ml soybean trypsin inhibitor and 0.3% BSA, pH 7.4. Samples consist of membrane protein, 50 pM human [^125I] human PP (hPP:NEN DuPont, Boston MA) and test compounds diluted to a final concentration of 5 µM. One µM hPP is used to define nonspecific binding. After a 2 hour incubation at room temperature with constant mixing, the samples are aspirated on a vacuum manifold, and rinsed with ice-cold binding buffer. The amount of radioactivity in each well is quantitated with either gamma counting or liquid scintillation.

In experiment [2] the target is T3, human NPY Y5 receptor subtype (Homo sapiens, UniProt Q15761).
T3 sequence (Q15761 1-445): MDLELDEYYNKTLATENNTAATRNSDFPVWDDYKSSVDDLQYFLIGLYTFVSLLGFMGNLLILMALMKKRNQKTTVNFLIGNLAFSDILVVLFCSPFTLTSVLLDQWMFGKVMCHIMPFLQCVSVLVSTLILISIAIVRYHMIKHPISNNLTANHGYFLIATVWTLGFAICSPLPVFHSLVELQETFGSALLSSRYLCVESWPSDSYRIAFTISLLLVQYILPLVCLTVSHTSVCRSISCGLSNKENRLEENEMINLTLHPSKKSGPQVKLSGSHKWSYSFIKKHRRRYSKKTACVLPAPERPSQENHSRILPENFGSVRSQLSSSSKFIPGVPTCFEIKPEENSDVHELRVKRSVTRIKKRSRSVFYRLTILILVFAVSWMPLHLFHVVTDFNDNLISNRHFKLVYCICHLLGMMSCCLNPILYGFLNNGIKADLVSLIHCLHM
The experiment can be described thus: NPY Y5 receptor membrane binding, [125I]PYY (human). Particulars: membrane protein; 75-100 pM [125I]PYY; 50% inhibition of specific binding; read-out: IC50 (µM) NPY receptor indicated hY5. As for the experimental part: (§1) Assays to determine human and rat NPY Y5 receptor subtype binding affinity are performed on GF/C Millipore 96-well plates pretreated with 0.02% polyethylenimine. The binding buffer is 25 mM Tris, 120 mM NaCl, 5 mM KCl, 1.2 mM KH2PO4, 2.5 mM CaCl2, 1.2 mM MgSO4, 0.1% BSA and 0.5 mg/ml bacitracin, pH 7.4. Samples consist of membrane protein, 75-100 pM [^125I] PYY (porcine, NEN-DuPont) and test compounds diluted in binding buffer. Nonspecific binding is defined by 1 µM PYY. After a 2 hour incubation at room temperature with constant mixing, the samples are aspirated on a vacuum manifold and rinsed with ice-cold binding buffer. The amount of radioactivity in each well is quantitated with either gamma counting or liquid scintillation. IC50 values, which correspond to 50% inhibition of specific binding, are determined with non-linear regression analysis.

Experiment [3] concerns the target T4, rat NPY Y5 receptor subtype (Rattus norvegicus, UniProt Q63634).
T4 sequence (Q63634 1-445): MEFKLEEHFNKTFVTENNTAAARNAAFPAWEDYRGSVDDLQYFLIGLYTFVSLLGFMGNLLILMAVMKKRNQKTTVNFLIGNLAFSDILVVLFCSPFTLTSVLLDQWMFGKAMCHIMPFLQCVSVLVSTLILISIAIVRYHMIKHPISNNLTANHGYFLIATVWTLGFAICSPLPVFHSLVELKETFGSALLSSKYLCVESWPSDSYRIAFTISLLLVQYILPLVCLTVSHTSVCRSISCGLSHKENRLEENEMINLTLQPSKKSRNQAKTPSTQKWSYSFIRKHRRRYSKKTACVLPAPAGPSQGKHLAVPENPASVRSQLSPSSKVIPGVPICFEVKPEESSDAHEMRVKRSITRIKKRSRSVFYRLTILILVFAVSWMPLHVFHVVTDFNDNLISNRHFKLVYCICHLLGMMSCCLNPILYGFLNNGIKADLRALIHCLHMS
The experiment is described as follows: NPY Y5 receptor membrane binding, [125I]PYY (rat). Particulars: for IC50: membrane protein, 75-100 pM [125I]PYY, 50% inhibition of specific binding, read-out: IC50 (µM) NPY receptor indicated rY5; for NPY receptor indicated rY5, %@1µM: printed in the rY5 IC50 column. On the procedure:
as §1

The next experiment has as its target T5, rat NPY Y5 receptor (Rattus norvegicus, UniProt Q63634).
T5 construct: expressed in transfected cells
T5 sequence (Q63634 1-445): T4 sequence (Q63634 1-445)
The experiment can be described thus: In vitro functional assay, forskolin-stimulated cAMP in cells stably expressing the receptor. Type of experiment: cell-based. Particulars: percentage of forskolin-stimulated adenylate cyclase; 1 µM forskolin; test compound 10 µM; 80 - 120% indicates no significant agonistic effect. On the procedure: An in vitro functional assay to determine rat NPY Y5 receptor subtype binding affinity is performed by resuspending cells stably expressing the rat NPY Y5 receptor in serum-free DMEM containing 10 mM HEPES (pH 7.4) and 1 mM isobutylmethylxanthine (IBMX). One µM forskolin and test compounds at a final concentration of 10 µM are then added to the cells. After a 20 minute incubation of the samples at 37°C, the assay is stopped by placing the samples in boiling water for 3 minutes. The cAMP produced in each sample is quantitated with a radioimmunoassay kit (NEN DuPont). Data are expressed as a percentage of forskolin-stimulated adenylate cyclase. Data between 80 - 120% indicates no significant agonistic effect.

human Y4/PP1, sequence (P50391 whole entry): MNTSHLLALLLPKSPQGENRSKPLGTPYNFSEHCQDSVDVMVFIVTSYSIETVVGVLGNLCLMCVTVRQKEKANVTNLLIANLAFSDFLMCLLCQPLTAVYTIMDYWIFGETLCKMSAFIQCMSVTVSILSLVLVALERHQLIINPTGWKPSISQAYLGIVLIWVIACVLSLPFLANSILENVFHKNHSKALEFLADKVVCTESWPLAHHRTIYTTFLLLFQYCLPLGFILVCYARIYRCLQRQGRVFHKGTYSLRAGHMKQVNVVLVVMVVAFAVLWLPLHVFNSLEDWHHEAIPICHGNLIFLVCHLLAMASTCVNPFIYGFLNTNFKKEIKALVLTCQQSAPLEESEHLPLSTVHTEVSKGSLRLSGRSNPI

For the compound `Cc1ccc(S(=O)(=O)CC(C(=O)c2nc3ccccc3[nH]2)c2ccccc2)cc1` (centres unmarked) [Compound 15, 1-(1H-Benzoimidazol-2-yl)-2-phenyl-3-(toluene-4-sulfonyl)-propan-1-one], the IC50 in experiment [1] is > 5 µM; on human NPY Y2, > 5 µM; on human Y4/PP1, > 5 µM; in experiment [2], 0.005 µM.
Regarding `Cc1ccc(S(=O)(=O)CC(C(=O)c2nc3cc(C)ccc3[nH]2)c2ccccc2)cc1` (centres unmarked) [Compound 13, (5-Methyl-1H-benzoimidazol-2-yl)-2-phenyl-3-(toluene-4-sulfonyl)-propan-1-one], the IC50 at human NPY Y2 was > 5 µM; at human Y4/PP1 it was > 5 µM; in experiment [2] it was 0.045 µM; in experiment [3], 0.036 µM.
As to `Cc1ccc(SCC(C(=O)c2nc3ccccc3[nH]2)c2ccccc2)cc1` (centres unmarked) [Compound 4, (1H-Benzoimidazol-2-yl)-2-phenyl-3-p-tolylsulfanyl-propan-1-one], the IC50 at human NPY Y2 and at human Y4/PP1 was > 5 µM in each case. The “NPY receptor indicated rY5, %@1µM” value in experiment [3] is given as 2%@1µM.
As to `Cc1ccc(S(=O)(=O)CC(C(=O)c2ncc[nH]2)c2ccccc2)cc1` (centres unmarked) [Compound 3, (1H-Imidazol-2-yl)-2-phenyl-3-(toluene-4-sulfonyl)-propan-1-one], the IC50 on human NPY Y2 and at human Y4/PP1 was > 5 µM each time. Moreover, in experiment [3], the “NPY receptor indicated rY5, %@1µM” value was determined as 30%@1µM.
For the compound `Cc1ccc([S+]([O-])CC(C(=O)c2nc3ccccc3[nH]2)c2ccccc2)cc1` (centres unmarked) [Compound 5, (1H-Benzoimidazol-2-yl)-2-phenyl-3-(toluene-4-sulfinyl)-propan-1-one], the IC50 is > 5 µM at human NPY Y2, > 5 µM at human Y4/PP1, 0.025 µM in experiment [2] and 0.025 µM in experiment [3].
For `Cc1ccc(S(=O)(=O)CC(C(=O)c2nc3ccccc3[nH]2)c2ccc(F)cc2)cc1` (centres unmarked) [Compound 9, 1-(1H-Benzoimidazol-2-yl)-2-(4-fluoro-phenyl)-3-(toluene-4-sulfonyl)-propan-1-one], the IC50 is > 5 µM in experiment [1], > 5 µM at human Y4/PP1, 0.015 µM in experiment [2] and 0.014 µM in experiment [3]. On rat NPY Y5 receptor, the “% forskolin at 10 µM” value is recorded as 105%.
Regarding `Cc1ccc(S(=O)(=O)CC(C(=O)c2ccc3ccccc3n2)c2ccccc2)cc1` (centres unmarked) [Compound 1], the IC50 in experiment [1] is > 5 µM; at human NPY Y2, > 5 µM; at human Y4/PP1, > 5 µM; in experiment [3], 9.8 µM. For the same compound, the “% forskolin at 10 µM” value at rat NPY Y5 receptor is listed as 78%.
With `O=C(c1nc2ccccc2[nH]1)C(CS(=O)(=O)c1cccc2ccccc12)c1ccccc1` (centres unmarked) [Compound 12, 1-(1H-Benzoimidazol-2-yl)-3-(naphthalene-1-sulfonyl)-2-phenyl-propan-1-one], the IC50 is > 5 µM in experiment [1], > 5 µM at human NPY Y2, > 5 µM on human Y4/PP1 and 0.011 µM in experiment [2].
Turning to `O=C(c1nc2ccccc2[nH]1)C(CS(=O)(=O)c1ccc(Br)cc1)c1ccccc1` (centres unmarked) [Compound 11, 1-(1H-Benzoimidazol-2-yl)-3-(4-bromo-benzenesulfonyl)-2-phenyl-propan-1-one], the IC50 is > 5 µM on human NPY Y2, > 5 µM at human Y4/PP1 and 0.008 µM in experiment [2].
